Measurements published in US9688857B2, “Fluorescent probe” (THE UNIVERSITY OF TOKYO, priority 2011, dated 2017).
Blank lines part the entries; values can stand above or below the molecule they belong to.

Experiments:
[1] = Optical characteristics, Table 3; format: physicochemical; details: for λmax, fl: 0.1 M phosphate buffer (pH 9) containing 1% DMSO; for Φfl: 0.1 M phosphate buffer (pH 9), 1% DMSO, standard 2-Me TokyoMagenta (0.42); for λmax, abs: 0.1 M phosphate buffer containing 1% DMSO
Description: The measurement was performed in a 0.1 M phosphate buffer (pH 9) containing 1% DMSO. pKa was obtained from the absorbance measured in a phosphate buffer (pH 9) by single-phase or two-phase curve fitting. The quantum yield was obtained by using the quantum yield of 2-Me TokyoMagenta (0.42) in a 0.1 M phosphate buffer (pH 9) as the standard.

[2] = Optical characteristics, Table 2; format: physicochemical; details: phosphate buffer (pH 9)
Description: The measurement was performed at pH 9.

[3] = biological target: T1, β-galactosidase (Escherichia coli, UniProt P00722); assay: Hydrolysis reaction by β-galactosidase monitored by fluorescence intensity over time; format: biochemical; details: 1 μM probe, 37° C., 0.1 M sodium phosphate buffer (pH 7.4), 0.1% DMSO, one unit β-galactosidase
Text: As a control, 2-Me-4-OMe TokyoGreen βgal was used, which had been already widely used as a fluorescent probe for β-galactosidase measurement.
Advance of the hydrolysis reaction of 2-Me TokyoMagenta βgal by β-galactosidase was monitored by periodically measuring fluorescence intensity. As a control, 2-Me-4-OMe TokyoGreen βgal (9-(4′-methoxy-2′-methylphenyl)-6-(β-D-galactopyranosyloxy)-xanthen-3-one), which had been already widely used as a fluorescent probe for β-galactosidase measurement, was used. The reaction was performed at 37° C. in a 0.1 M sodium phosphate buffer (pH 7.4) containing 1 μM 2-Me TokyoMagenta βgal or 2-Me-4-OMe TokyoGreen βgal and 0.1% dimethyl sulfoxide. One unit (1.3 μg) of β-galactosidase was added 40 seconds afterward.
Target sequence in this assay (P00722 2-1024): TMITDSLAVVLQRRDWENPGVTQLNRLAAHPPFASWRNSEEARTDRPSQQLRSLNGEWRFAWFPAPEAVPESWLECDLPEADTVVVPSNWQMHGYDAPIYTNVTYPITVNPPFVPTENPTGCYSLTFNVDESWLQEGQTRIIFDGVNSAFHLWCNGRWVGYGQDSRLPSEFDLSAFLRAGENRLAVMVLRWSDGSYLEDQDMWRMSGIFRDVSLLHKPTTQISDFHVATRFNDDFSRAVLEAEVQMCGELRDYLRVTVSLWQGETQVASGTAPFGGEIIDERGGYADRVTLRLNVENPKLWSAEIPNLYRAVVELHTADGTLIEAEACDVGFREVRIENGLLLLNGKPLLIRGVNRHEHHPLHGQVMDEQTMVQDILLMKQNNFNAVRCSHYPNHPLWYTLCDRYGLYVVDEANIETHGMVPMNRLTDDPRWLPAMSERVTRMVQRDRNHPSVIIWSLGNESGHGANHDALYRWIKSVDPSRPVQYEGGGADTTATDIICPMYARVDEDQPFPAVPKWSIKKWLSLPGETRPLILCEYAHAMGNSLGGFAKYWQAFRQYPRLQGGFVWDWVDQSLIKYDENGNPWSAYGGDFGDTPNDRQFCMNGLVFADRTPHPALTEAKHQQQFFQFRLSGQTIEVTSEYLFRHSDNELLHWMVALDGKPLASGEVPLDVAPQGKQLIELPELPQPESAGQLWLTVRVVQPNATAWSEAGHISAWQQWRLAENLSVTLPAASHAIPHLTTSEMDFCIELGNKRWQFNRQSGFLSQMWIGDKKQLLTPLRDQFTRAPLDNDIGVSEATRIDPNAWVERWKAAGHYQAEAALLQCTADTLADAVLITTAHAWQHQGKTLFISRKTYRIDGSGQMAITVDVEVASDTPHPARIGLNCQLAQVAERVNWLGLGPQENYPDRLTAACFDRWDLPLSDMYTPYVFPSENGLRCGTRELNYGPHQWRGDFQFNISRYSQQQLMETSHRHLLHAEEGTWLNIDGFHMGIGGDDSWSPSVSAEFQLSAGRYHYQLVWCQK

[4] = Comparison of absorption wavelengths at pH 3 and 9 in sodium phosphate buffer (Table 1); format: physicochemical; design: λmax: unit not given beside the values; details: for λmax: sodium phosphate buffer
Description: The results of comparison of the absorption wavelengths of 2-Me TokyoMagenta and 2-Me TokyoGreen (9-(2′-methylphenyl)-xanthen-3-one) having oxygen atom at the 10-position of the xanthene ring are shown in FIG. 2 and Table 1. The measurement was performed at pH 3 and 9 in a sodium phosphate buffer.

[5] = Absorption and fluorescence profiles at various pH values (Example 2); format: physicochemical; details: for maximal absorption wavelength: 1 μM in 0.1 M phosphate buffer, 1% DMSO
Description: The measurement was performed with changing pH. In this specification, Me means methyl group. […] The measurement was performed by using a 1 μM solution of 2-Me TokyoMagenta dissolved in a 0.1 M phosphate buffer containing 1% dimethyl sulfoxide (DMSO).
Absorption and fluorescence profiles of 2-Me TokyoMagenta obtained in the step (g) mentioned above were measured at various pH values. […] It is considered that 2-Me TokyoMagenta exists in an equilibrated state of the non-dissociated form (neutral form) and the dissociated form (anion form) mentioned below depending on pH.

[6] = physchem; format: physicochemical
Description: In the table, the items attached with the letter a were measured in a phosphate buffer (pH 9), and the item attached with the letter b was measured in a 0.1 M phosphate buffer containing 1% DMSO.
The measurement was performed in a 0.1 M phosphate buffer (pH 9) containing 1% DMSO. pKa was obtained from the absorbance measured in a phosphate buffer (pH 9) by single-phase or two-phase curve fitting.

[7] = Fluorescence profiles at various pH values, excitation 471 nm (Example 6); format: physicochemical; details: shift of pH from the acidic side to the alkaline side
Description: The measurement was performed with changing pH (excitation wavelength, 471 nm) by using a 1 μM solution of 2-Me TokyoMagenta dissolved in a 0.1 M phosphate buffer containing 1% dimethyl sulfoxide (DMSO).
Absorption and fluorescence profiles of 2-Me TokyoMagenta obtained in the step (g) mentioned above were measured at various pH values (excitation wavelength, 471 nm). It was confirmed that, with the shift of pH from the acidic side to the alkaline side, fluorescence intensity decreased around 590 nm, and fluorescence intensity increased around 560 nm.

[8] = biological target: T1, β-galactosidase; assay: Absorption spectra before and after treatment with β-galactosidase; format: biochemical; details: 0.1 M sodium phosphate buffer (pH 7.0), 0.1% DMSO
Description: The characteristics of 2-Me TokyoMagenta βgal, which was designed as a fluorescent probe for β-galactosidase measurement, as an enzyme substrate and a fluorescent probe were evaluated. There are shown absorption spectra (FIG. 3, upper left graph) and fluorescence spectra (FIG. 3, upper right graph (excitation wavelength, 582 nm) and FIG. 3, lower left graph (excitation wavelength, 448 nm)) of 2-Me TokyoMagenta βgal measured before and after a treatment with β-galactosidase (6 units) in a 0.1 M sodium phosphate buffer (pH 7.0) containing 0.1% dimethyl sulfoxide. The λmax values measured before and after the reaction were 448 nm (before the reaction), and 582 nm (after the reaction), respectively.
Target sequence in this assay (P00722 2-1024): as above

[9] = biological target: T1, β-galactosidase; assay: Measurement of intracellular β-galactosidase in HEK293 cells (lacZ(+) or lacZ(−)); format: cell-based; design: expressed in transfected cells; host or cells: HEK293 lacZ(+); details: 10 μM, 37° C., 30 minutes, excitation 580 nm, detection 600 to 620 nm
Description: The bars shown in the photographs indicate 30 μm.
2-Me TokyoMagenta βgal was introduced into cells, and it was confirmed that it functioned as a fluorescent probe for β-galactosidase measurement. The HEK293 cells (lacZ(+) or lacZ(−)) were incubated with 10 μM 2-Me TokyoMagenta βgal at 37° C. for 30 minutes in the Dulbecco's modified Eagle medium (DMEM) containing 0.1% dimethyl sulfoxide, and fluorescence spectrum was measured with an excitation wavelength of 580 nm and detection wavelength of 600 to 620 nm.
Target sequence in this assay (P00722 whole entry): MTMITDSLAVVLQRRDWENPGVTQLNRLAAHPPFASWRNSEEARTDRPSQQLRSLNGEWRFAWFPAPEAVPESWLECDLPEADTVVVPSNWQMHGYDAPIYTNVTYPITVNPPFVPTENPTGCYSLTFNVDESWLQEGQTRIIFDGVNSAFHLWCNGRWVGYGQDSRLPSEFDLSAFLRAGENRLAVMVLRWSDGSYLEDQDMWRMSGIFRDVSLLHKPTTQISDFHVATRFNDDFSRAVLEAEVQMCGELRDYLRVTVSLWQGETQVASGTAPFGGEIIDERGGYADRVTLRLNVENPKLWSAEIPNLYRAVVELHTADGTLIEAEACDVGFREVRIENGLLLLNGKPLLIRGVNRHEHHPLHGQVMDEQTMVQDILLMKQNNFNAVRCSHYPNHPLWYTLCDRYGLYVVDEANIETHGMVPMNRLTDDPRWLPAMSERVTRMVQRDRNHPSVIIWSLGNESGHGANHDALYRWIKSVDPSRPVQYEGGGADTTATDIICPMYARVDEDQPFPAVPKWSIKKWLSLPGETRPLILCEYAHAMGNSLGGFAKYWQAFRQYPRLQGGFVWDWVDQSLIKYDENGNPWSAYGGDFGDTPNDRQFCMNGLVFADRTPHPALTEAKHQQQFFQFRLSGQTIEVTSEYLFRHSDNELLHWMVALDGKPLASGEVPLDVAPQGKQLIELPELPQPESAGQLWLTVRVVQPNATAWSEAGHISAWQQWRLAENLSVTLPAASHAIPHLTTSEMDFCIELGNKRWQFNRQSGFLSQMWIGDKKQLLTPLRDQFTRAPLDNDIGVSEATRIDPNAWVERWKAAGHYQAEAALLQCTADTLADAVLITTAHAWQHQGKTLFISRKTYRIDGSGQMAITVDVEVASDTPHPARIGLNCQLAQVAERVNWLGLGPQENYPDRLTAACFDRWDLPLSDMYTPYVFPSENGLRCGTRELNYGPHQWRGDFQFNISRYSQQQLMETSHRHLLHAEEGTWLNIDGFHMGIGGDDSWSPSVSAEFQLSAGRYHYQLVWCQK

Structure (SMILES): C[Si]1(C)C2=C(Cl)C(=O)C=CC2=C(c2ccccc2C(=O)O)c2ccc(O)c(Cl)c21 [2-COOH DCTM]
λmax, fl [1]: 607 nm
Φfl [1]: 0.48
λmax, abs ([1]; pH 9): 591 nm

Structure (SMILES): COc1ccc(-c2c3ccc(=O)cc-3oc3cc(O[C@@H]4O[C@H](CO)[C@H](O)[C@H](O)[C@H]4O)ccc23)c(C)c1 [2-Me-4-OMe TokyoGreen βgal, 9-(4′-methoxy-2′-methylphenyl)-6-(β-D-galactopyranosyloxy)-xanthen-3-one, reference compound]
fluorescence response on hydrolysis by β-galactosidase [3]: fluorescence was generated by cancellation of PET

Structure (SMILES): C[Si]1(C)C2=CC(=O)C=CC2=C(c2ccccc2C(=O)O)c2ccc(O)cc21 [2-COOH TM]
λmax, fl [1]: 598 nm
Φfl [1]: 0.38
λmax, abs ([1]; pH 9): 582 nm

Structure (SMILES): Cc1ccccc1C1=C2C=CC(=O)C=C2[Si](C)(C)c2cc(O)ccc21 [2-Me TokyoMagenta]
maximal absorption wavelength ([5]; acidic side of pH): around 471 nm
maximal absorption wavelength ([5]; alkaline side of pH): around 582 nm
Φfl ([5]; anion form): 0.42
ε ([5]; anion form): 110000
Φfl ([5]; neutral form): 0.10
ε ([5]; neutral form): 29000
fluorescence emission with excitation light of 550 nm ([5]; shift of pH from the acidic side to the alkaline side): significantly increased
λmax ([4]; Anion form (pH 9)): 582
λmax ([4]; Neutral form (pH 3)): 471
absorption wavelength change with change of pH ([4]; compared with 2-Me TokyoGreen, pH 3 and 9): larger absorption wavelength change
Φfl [2]: 0.42
λabs [2]: 582 nm
λfl [2]: 598 nm
pKa [6]: 6.8
λmax, fl [1]: 598 nm
Φfl [1]: 0.42
λmax, abs ([1]; pH 3): 472 nm
λmax, abs ([1]; pH 9): 582 nm
fluorescence intensity around 560 nm [7]: increased
fluorescence intensity around 590 nm [7]: decreased

Structure (SMILES): Cc1ccccc1C1=C2C=CC(=O)C=C2[Si](C)(C)c2cc(O[C@@H]3O[C@H](CO)[C@H](O)[C@H](O)[C@H]3O)ccc21 [2-Me TokyoMagenta βgal]
λmax after the reaction ([8]; after β-galactosidase (6 units)): 582 nm
λmax before the reaction ([8]; before β-galactosidase (6 units)): 448 nm
fluorescence response on hydrolysis by β-galactosidase [3]: increase of fluorescence intensity due to red shift
fluorescence in cells ([9]; HEK293 lacZ(+) cells): fluorescence emitted by the fluorescent probe hydrolyzed by β-galactosidase was confirmed
fluorescence in cells ([9]; HEK293 lacZ(−) cells): fluorescence was not observed

Continued, values first:

λmax, fl [1]: 598 nm
Φfl [1]: 0.57
λmax, abs ([1]; pH 3): 465 nm
λmax, abs ([1]; pH 9): 583 nm
Structure (SMILES): Cc1ccccc1C1=C2C=CC(=O)C(F)=C2[Si](C)(C)c2c1ccc(O)c2F [2-Me DFTM]

λmax, fl [1]: 607 nm
Φfl [1]: 0.48
λmax, abs ([1]; pH 3): 477 nm
λmax, abs ([1]; pH 9): 595 nm
Structure (SMILES): Cc1ccccc1C1=C2C=CC(=O)C(Cl)=C2[Si](C)(C)c2c1ccc(O)c2Cl [2-Me DCTM]

Φfl [2]: 0.48
λabs [2]: 582 nm
λfl [2]: 601 nm
Structure (SMILES): CC[Si]1(CC)C2=CC(=O)C=CC2=C(c2ccccc2C)c2ccc(O)cc21 [2-Me DiEtTM]

λmax, fl [1]: 596 nm
Φfl [1]: 0.54
λmax, abs ([1]; pH 9): 581 nm
Structure (SMILES): C[Si]1(C)C2=C(F)C(=O)C=CC2=C(c2ccccc2C(=O)O)c2ccc(O)c(F)c21 [2-COOH DFTM]

λmax ([4]; Anion form (pH 9)): 492
λmax ([4]; Neutral form (pH 3)): 439
Structure (SMILES): Cc1ccccc1-c1c2ccc(=O)cc-2oc2ccccc12 [2-Me TokyoGreen, 9-(2′-methylphenyl)-xanthen-3-one, reference compound]
